For one experiment, the target named is MST3 (Homo sapiens (Human), UniProt Q9Y6E0). The experiment in a line: KINATIV assay. Type of experiment: cell-based. The note with it: 1 μM, 90 minutes, BCWM.1 cells. A digest of the protocol:
(§1)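 Chemoproteomic format: endogenous kinases in cell lysate were tagged by an ATP-biotin probe and quantitated by ACTIVX.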

In a further experiment the target is SMG1 (Homo sapiens (Human), UniProt Q96Q15). Briefly: KINATIV assay. The format is cell-based. The note with it: 1 μM, 90 minutes, BCWM.1 cells. In outline:
as §1

The target in the next experiment is FER (Homo sapiens (Human), UniProt P16591). The experiment in a line: KINATIV assay. The format is cell-based. The note with it: 1 μM, 90 minutes, BCWM.1 cells. A digest of the protocol: as §1
Sequence of FER (P16591 whole entry): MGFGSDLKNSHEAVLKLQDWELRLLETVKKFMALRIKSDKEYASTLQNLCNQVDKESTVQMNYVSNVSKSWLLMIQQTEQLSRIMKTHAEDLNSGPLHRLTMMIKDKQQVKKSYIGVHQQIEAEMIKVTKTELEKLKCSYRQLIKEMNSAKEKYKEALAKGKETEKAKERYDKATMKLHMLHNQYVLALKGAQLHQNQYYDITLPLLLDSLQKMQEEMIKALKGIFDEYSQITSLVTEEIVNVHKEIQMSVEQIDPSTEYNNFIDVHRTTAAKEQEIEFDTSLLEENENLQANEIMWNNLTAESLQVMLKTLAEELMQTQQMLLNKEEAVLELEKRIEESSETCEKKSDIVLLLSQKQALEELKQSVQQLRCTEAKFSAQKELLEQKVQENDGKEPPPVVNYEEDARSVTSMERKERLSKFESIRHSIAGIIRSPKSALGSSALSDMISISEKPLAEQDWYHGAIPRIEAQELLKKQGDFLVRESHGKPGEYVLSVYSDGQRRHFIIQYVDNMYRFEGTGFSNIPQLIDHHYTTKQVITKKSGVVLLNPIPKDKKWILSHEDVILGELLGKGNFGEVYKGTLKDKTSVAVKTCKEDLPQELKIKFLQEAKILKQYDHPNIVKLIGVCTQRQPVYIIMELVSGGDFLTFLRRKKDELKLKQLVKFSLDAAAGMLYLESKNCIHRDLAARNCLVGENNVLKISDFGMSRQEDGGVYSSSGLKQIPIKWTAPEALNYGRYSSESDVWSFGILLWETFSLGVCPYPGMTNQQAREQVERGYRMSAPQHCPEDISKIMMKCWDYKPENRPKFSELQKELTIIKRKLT
Another experiment concerns the target CHK2 (Homo sapiens (Human), UniProt O96017). The experiment in a line: KINATIV assay. The format is cell-based. As to conditions: 1 μM, 90 minutes, BCWM.1 cells. A digest of the protocol: as §1
A further experiment concerns the target MAP2K4 (Homo sapiens (Human), UniProt P45985). Briefly: KINATIV assay. The format is cell-based. The note with it: 1 μM, 90 minutes, BCWM.1 cells. In outline:
as §1

The target of another experiment is GCK (Homo sapiens (Human), UniProt Q12851). Briefly: KINATIV assay. The format is cell-based. The note with it: 1 μM, 90 minutes, BCWM.1 cells. A digest of the protocol:
as §1

In a further experiment the target is CHK1 (Homo sapiens (Human), UniProt O14757). Briefly: KINATIV assay. Type of experiment: cell-based. The note with it: 1 μM, 90 minutes, BCWM.1 cells. In outline:
as §1

Experiment [1] concerns the target broad panel of kinases (Homo sapiens, UniProt P48730). The format is binding. As to conditions: CSNK1D; 1 μM.
The target of experiment [2] is broad panel of kinases (Homo sapiens, UniProt P15056, V600E). Type of experiment: binding. As to conditions: BRAF(V600E); 1 μM.
Experiment [3] has as its target broad panel of kinases (Homo sapiens, UniProt Q02156). The format is binding. The note with it: PRKCE; 1 μM.
Experiment [4] concerns the target broad panel of kinases (Homo sapiens, UniProt P00519, H396P). Type of experiment: binding. As to conditions: 1 μM.
The target in experiment [5] is broad panel of kinases (Homo sapiens, UniProt O43683). The format is binding. As to conditions: BUB1; 1 μM.
The target of experiment [6] is broad panel of kinases (Homo sapiens, UniProt P23443). The format is binding. The note with it: S6K1; 1 μM.
Experiment [7] addresses broad panel of kinases (Homo sapiens, UniProt Q9H4A3). Type of experiment: binding. The note with it: WNK1; 1 μM.
The target of experiment [8] is broad panel of kinases (Homo sapiens, UniProt P06239). The format is binding. As to conditions: LCK; 1 μM.
The target of experiment [9] is broad panel of kinases (Homo sapiens, UniProt P37023). Type of experiment: binding. As to conditions: ACVRL1; 1 μM.
In experiment [10] the target is broad panel of kinases (Homo sapiens, UniProt P53778). The format is binding. The note with it: p38-gamma; 1 μM.
In experiment [11] the target is broad panel of kinases (Homo sapiens, UniProt P57078). The format is binding. The note with it: RIPK4; 1 μM.
Experiment [12] deals with broad panel of kinases (Homo sapiens, UniProt O94921). The format is binding. The note with it: PFTK1; 1 μM.
For experiment [13], the target named is broad panel of kinases (Homo sapiens, UniProt P36897). The format is binding. As to conditions: TGFBR1; 1 μM.
Experiment [14] deals with broad panel of kinases (Homo sapiens, UniProt P29376). Type of experiment: binding. The note with it: LTK; 1 μM.
The target of experiment [15] is broad panel of kinases (Homo sapiens, UniProt Q5VT25). Type of experiment: binding. As to conditions: MRCKA; 1 μM.
Experiment [16] concerns the target broad panel of kinases (Homo sapiens, UniProt Q8WU08). The format is binding. As to conditions: YANK1; 1 μM.
Experiment [17] addresses broad panel of kinases (Homo sapiens, UniProt O60285). Type of experiment: binding. As to conditions: ARK5; 1 μM.
Experiment [18] has as its target broad panel of kinases (Homo sapiens, UniProt Q96GD4). The format is binding. The note with it: AURKB; 1 μM.
The target of experiment [19] is broad panel of kinases (Homo sapiens, UniProt Q14012). The format is binding. The note with it: CAMK1; 1 μM.
The target in experiment [20] is broad panel of kinases (Homo sapiens, UniProt P08922). Type of experiment: binding. As to conditions: ROS1; 1 μM.
Experiment [21] has as its target broad panel of kinases (Homo sapiens, UniProt O14920). Type of experiment: binding. The note with it: IKK-beta; 1 μM.
The target of experiment [22] is broad panel of kinases (Homo sapiens, UniProt O95835). The format is binding. The note with it: LATS1; 1 μM.
Experiment [23] addresses broad panel of kinases (Homo sapiens, UniProt Q96PY6). The format is binding. The note with it: NEK1; 1 μM.
In experiment [24] the target is broad panel of kinases (Homo sapiens, UniProt Q9Y5S2). The format is binding. As to conditions: MRCKB; 1 μM.
In experiment [25] the target is broad panel of kinases (Homo sapiens, UniProt Q9BQI3). The format is binding. The note with it: EIF2AK1; 1 μM.
The target in experiment [26] is broad panel of kinases (Homo sapiens, UniProt O75914). The format is binding. As to conditions: PAK3; 1 μM.
In a further experiment the target is CDK5 (Homo sapiens (Human), UniProt Q00535). Briefly: KINATIV assay. The format is cell-based. As to conditions: 1 μM, 90 minutes, BCWM.1 cells. In outline:
as §1

The target in another experiment is RSK1 domain 1 (Homo sapiens (Human), UniProt Q15418). Briefly: KINATIV assay. The format is cell-based. As to conditions: 1 μM, 90 minutes, BCWM.1 cells. A digest of the protocol: as §1
In another experiment the target is PLK1 (Homo sapiens (Human), UniProt P53350). The experiment in a line: KINATIV assay. Type of experiment: cell-based. As to conditions: 1 μM, 90 minutes, BCWM.1 cells. A digest of the protocol:
as §1

The next experiment concerns the target MAP2K3 (Homo sapiens (Human), UniProt P46734). The experiment in a line: KINATIV assay. As to conditions: 1 μM, 90 minutes, BCWM.1 cells. Type of experiment: cell-based. A digest of the protocol: as §1

Several values for one entry are separate records, joined by “and”; a condition that tells them apart may be missing. Equal values may be shown once. Read-outs that look alike come from different tables or passages of the source.

Sequence of CDK5 (Q00535 whole entry): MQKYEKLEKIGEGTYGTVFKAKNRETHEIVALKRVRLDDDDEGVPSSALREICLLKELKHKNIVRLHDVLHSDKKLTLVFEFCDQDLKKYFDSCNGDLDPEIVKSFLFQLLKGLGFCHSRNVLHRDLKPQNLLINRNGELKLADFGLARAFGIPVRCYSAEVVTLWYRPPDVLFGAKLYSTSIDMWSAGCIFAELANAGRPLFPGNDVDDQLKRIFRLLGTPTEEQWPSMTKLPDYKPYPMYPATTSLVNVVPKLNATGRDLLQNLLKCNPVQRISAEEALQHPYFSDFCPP
Sequence of MAP2K3 (P46734 whole entry): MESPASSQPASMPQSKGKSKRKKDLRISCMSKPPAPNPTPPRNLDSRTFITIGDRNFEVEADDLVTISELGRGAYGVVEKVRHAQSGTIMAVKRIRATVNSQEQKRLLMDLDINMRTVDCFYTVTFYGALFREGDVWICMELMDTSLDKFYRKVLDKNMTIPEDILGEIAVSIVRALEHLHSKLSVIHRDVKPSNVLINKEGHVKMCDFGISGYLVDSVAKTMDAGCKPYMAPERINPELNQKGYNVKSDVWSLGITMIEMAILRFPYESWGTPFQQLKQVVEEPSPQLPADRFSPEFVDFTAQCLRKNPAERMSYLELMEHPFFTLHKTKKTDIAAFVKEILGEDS
Sequence of CHK2 (O96017 whole entry): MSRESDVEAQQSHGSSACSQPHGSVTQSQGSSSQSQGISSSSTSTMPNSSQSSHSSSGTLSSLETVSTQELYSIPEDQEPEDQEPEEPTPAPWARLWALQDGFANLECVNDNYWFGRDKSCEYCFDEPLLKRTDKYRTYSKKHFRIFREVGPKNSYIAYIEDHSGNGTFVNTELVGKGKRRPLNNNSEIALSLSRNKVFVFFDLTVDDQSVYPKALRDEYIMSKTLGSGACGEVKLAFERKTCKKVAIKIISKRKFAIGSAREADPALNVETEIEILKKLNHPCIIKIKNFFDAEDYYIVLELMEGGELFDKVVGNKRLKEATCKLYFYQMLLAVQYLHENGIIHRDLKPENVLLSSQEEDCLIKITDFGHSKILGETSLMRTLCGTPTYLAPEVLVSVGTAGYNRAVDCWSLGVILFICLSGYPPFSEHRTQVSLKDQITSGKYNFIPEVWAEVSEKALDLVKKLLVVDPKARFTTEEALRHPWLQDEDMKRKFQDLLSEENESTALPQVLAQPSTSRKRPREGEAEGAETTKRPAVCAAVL
Sequence of CHK1 (O14757 whole entry): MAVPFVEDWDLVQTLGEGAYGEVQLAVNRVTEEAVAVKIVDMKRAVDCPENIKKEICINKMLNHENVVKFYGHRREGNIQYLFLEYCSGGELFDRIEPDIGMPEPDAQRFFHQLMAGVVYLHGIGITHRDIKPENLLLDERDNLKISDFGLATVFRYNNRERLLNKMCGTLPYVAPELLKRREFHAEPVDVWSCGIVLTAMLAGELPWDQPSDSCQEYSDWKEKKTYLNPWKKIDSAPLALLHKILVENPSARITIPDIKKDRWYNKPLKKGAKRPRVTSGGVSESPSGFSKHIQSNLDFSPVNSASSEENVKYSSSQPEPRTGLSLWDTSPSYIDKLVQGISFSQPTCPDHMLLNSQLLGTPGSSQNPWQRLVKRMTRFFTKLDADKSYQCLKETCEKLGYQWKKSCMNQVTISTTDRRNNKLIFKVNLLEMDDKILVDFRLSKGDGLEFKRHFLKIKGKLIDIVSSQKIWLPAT
Sequence of GCK (Q12851 whole entry): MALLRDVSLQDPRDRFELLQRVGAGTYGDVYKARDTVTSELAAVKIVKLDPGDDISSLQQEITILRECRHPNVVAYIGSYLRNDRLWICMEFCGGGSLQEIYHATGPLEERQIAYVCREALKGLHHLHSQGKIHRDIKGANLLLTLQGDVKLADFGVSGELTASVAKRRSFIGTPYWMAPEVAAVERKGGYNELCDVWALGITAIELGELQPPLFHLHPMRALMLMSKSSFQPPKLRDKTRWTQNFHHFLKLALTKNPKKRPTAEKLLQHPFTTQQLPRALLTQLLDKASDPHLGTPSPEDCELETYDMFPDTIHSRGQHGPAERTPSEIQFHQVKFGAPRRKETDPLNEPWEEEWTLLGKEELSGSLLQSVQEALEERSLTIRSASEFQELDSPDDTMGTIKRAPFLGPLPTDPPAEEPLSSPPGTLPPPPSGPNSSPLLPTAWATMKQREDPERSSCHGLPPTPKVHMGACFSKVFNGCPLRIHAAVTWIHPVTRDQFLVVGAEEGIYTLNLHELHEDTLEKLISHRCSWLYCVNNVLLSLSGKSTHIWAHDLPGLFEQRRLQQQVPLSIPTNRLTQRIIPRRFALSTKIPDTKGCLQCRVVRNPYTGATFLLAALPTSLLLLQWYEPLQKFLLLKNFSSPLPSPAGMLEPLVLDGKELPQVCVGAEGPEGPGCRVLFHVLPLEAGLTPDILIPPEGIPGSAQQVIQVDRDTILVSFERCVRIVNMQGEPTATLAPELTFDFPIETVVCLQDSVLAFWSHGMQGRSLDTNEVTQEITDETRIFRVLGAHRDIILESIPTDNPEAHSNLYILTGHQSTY
Sequence of MST3 (Q9Y6E0 whole entry): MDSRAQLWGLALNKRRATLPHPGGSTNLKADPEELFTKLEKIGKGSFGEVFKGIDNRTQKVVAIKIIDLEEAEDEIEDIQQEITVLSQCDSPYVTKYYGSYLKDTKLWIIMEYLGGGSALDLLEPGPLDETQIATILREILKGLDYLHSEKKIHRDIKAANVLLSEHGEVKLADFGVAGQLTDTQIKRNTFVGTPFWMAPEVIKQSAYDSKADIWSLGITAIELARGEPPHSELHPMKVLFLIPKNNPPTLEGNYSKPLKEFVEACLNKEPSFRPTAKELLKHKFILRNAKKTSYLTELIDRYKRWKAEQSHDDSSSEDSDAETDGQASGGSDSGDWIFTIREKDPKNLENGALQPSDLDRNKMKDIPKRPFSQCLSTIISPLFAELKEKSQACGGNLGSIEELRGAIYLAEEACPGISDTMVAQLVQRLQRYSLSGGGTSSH
Sequence of MAP2K4 (P45985 whole entry): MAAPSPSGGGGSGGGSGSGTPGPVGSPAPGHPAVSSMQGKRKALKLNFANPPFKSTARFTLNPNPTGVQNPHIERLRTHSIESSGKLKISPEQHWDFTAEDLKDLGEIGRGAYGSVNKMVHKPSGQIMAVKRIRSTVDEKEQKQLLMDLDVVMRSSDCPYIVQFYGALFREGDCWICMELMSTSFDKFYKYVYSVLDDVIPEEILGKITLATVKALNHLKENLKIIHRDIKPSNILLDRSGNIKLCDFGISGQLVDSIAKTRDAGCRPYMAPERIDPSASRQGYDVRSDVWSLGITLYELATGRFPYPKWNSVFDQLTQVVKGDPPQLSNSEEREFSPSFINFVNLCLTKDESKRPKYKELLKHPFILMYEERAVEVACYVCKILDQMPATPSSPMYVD
Sequence of PLK1 (P53350 whole entry): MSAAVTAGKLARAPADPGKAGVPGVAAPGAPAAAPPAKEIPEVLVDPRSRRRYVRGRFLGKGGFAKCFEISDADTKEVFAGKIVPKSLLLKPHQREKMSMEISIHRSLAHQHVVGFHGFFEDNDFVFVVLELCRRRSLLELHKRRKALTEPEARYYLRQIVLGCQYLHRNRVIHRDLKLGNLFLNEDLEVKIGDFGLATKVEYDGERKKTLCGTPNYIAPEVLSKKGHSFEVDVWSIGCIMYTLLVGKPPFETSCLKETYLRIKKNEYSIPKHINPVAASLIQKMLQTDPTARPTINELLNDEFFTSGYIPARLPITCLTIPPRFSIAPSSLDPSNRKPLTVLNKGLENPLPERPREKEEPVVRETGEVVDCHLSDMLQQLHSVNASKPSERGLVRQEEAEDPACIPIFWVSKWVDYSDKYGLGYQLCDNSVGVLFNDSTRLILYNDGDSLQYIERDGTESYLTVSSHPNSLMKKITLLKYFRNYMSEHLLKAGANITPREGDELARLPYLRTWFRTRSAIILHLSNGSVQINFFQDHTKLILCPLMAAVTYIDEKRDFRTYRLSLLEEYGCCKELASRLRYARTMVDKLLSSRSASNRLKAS

With `C=CC(=O)N1CCC(CNc2nccc(Nc3ncc(C(=O)Nc4c(C)cccc4C)s3)n2)C1` (racemic) [Example I-8], the “% change of MS signal compared to control sample” value (from here on “% change of MS signal”) was −1.5% and −7.7% at MST3; 23.1% at SMG1; −7.7% and −4.8% on FER; −14.3% and −10.9% on CHK2; −8.5% and −6.1% at MAP2K4; 2.0% and 2.4% on GCK. Besides, on CHK1, the “% change of MS signal” value is 15.3% and 24.7%.

For the molecule `C=CC(=O)N1CC[C@H](Nc2nc(CN3CCOCC3)cc(Nc3ncc(C(=O)Nc4c(C)cccc4C)s3)n2)C1` [Example I-2], the “percent of control binding remaining (lower = stronger binding)” value at broad panel of kinases [1] was found to be 100%; on broad panel of kinases [2], 1.6%; on broad panel of kinases [3], 100%; on broad panel of kinases [4] (ABL1(H396P)-nonphosphorylated) it was 0%; at broad panel of kinases [4] (ABL1(H396P)-phosphorylated) it was 0%; at broad panel of kinases [5], 85%. For the same molecule, the “percent of control binding remaining (lower = stronger binding)” value was determined as 100% on broad panel of kinases [6]; 100% on broad panel of kinases [7]; 0.65% at broad panel of kinases [8]; 54% on broad panel of kinases [9]; 100% at broad panel of kinases [10]; 95% on broad panel of kinases [11]. In addition, the “percent of control binding remaining (lower = stronger binding)” value at broad panel of kinases [12] was 72%; on broad panel of kinases [13], 50%; at broad panel of kinases [14] it was 100%; on broad panel of kinases [15], 65%; at broad panel of kinases [16], 100%; at broad panel of kinases [17] it was 99%. Besides, the “percent of control binding remaining (lower = stronger binding)” value on broad panel of kinases [18] was 96%; on broad panel of kinases [19] it was 91%; on broad panel of kinases [20], 97%; at broad panel of kinases [21], 75%; at broad panel of kinases [22] it was 100%; at broad panel of kinases [23] it was 88%. Also, the “percent of control binding remaining (lower = stronger binding)” value was 89% on broad panel of kinases [24], 100% at broad panel of kinases [25] and 75% on broad panel of kinases [26].

As for `C=CC(=O)N1CC[C@H](Nc2nccc(Nc3ncc(C(=O)Nc4c(C)cccc4C)s3)n2)C1` [Example I-3], the “percent of control binding remaining (lower = stronger binding)” value was 99% at broad panel of kinases [1]; 2.1% at broad panel of kinases [2]; 100% on broad panel of kinases [3]; 68% at broad panel of kinases [5]; 97% at broad panel of kinases [6]; 95% on broad panel of kinases [7]. Also, the “percent of control binding remaining (lower = stronger binding)” value on broad panel of kinases [9] was determined as 76%; at broad panel of kinases [10], 100%; on broad panel of kinases [11] it was 100%; on broad panel of kinases [12], 99%; on broad panel of kinases [13], 97%; at broad panel of kinases [14], 100%. The “percent of control binding remaining (lower = stronger binding)” value on broad panel of kinases [15] is given as 88%; on broad panel of kinases [16], 84%; at broad panel of kinases [17] it was 100%; on broad panel of kinases [18] it was 100%; at broad panel of kinases [19] it was 63%; at broad panel of kinases [20], 90%. Moreover, the “percent of control binding remaining (lower = stronger binding)” value at broad panel of kinases [21] was 86%; on broad panel of kinases [22] it was 93%; at broad panel of kinases [23] it was 85%; at broad panel of kinases [24], 100%; at broad panel of kinases [25], 97%; on broad panel of kinases [26] it was 51%. For the same molecule, the figures for the “% change compared to control” value at broad panel of kinases [4] (ABL1(H396P)-nonphosphorylated), on broad panel of kinases [4] (ABL1(H396P)-phosphorylated) and on broad panel of kinases [8] were 0.05%, 0% and 0.55%, respectively.

For `C=CC(=O)N1CC[C@@H](Nc2nccc(Nc3ncc(C(=O)Nc4c(C)cccc4C)s3)n2)C1` [Example I-4], the “% change of MS signal” value is −7.1% and −7.2% on CDK5; −62.2% and −53.4% on RSK1 domain 1; 17.4% at PLK1; −7.9% and 1.0% at CHK2; −48.8% at MAP2K4; −12.3% and −18.8% at MAP2K3. For the same molecule, at CHK1, the “% change of MS signal” value came out at 24.1%.

As to `C=CC(=O)N1CCCCC(Nc2nccc(Nc3ncc(C(=O)Nc4c(C)cccc4C)s3)n2)C1` (stereo not shown) [Example I-7], the “% change of MS signal” value is 21.5% at SMG1; −5.8% and −5.3% at FER; −12.2% and −4.1% at GCK.

As to `C=CC(=O)N1CCC(Cn2ccc(Nc3ncc(C(=O)Nc4c(C)cccc4Cl)s3)n2)C1` (stereo not shown) [II-1], the “% change of MS signal” value at MST3 is 5.9% and 2.0%; on CDK5 it was −11.2% and −8.0%; on RSK1 domain 1, −76.3%; at PLK1, 0.5% and −0.2%; on MAP2K3, −19.5% and −15.9%.

Source of the values: patent publication US10844077B2, “Thiazolyl-containing compounds for treating proliferative diseases” (Dana-Farber Cancer Institute, Inc., priority 2014, dated 2020).
